From PMC11283454 (Nature Communications, 2024)
Blank lines part the entries; values can stand above or below the compound they belong to. Peptide text beside a SMILES is read from it. * marks the point of attachment. Cbz = O=C(OCc1ccccc1)*

Legend:
hATE1 [1] = target: T1, hATE1 (Homo sapiens, UniProt O95260); experiment: Differential scanning fluorimetry of hATE1 with or without ligands; details: DSF; for change of melting temperature of hATE1 in the presence of ligand: absence of tRNA, result in words
T1 sequence (O95260 1-518 isoform O95260-2): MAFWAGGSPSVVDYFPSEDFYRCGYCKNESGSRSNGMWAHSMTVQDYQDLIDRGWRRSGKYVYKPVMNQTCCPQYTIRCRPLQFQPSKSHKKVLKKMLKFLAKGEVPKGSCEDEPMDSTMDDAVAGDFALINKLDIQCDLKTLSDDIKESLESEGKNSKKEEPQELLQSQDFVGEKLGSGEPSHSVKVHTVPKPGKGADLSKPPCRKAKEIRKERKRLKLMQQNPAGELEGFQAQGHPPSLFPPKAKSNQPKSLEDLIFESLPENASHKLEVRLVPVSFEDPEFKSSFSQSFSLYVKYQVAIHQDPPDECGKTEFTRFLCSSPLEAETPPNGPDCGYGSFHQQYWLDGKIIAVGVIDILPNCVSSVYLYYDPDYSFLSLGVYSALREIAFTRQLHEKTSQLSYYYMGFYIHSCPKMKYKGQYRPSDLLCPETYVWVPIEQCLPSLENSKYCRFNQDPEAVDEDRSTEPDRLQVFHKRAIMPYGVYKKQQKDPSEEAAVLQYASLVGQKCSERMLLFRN

RGS4 [2] = experiment: Immunoblotting, proteasomal flux; details: MG132 10 μM, 6 h
hATE1 [3] = target: T1, hATE1; experiment: MST direct binding assay, hATE1-peptide interaction; details: with vs without A + T arms
human ATE1 = experiment: Intact protein analysis of purified ATE1; details: purified recombinant ATE1, GST-tag removed, LC-MS
RGS4 [4] = experiment: Immunocytochemistry, RGS4 level in ATE1 deficient HeLa cells; details: ATE1-KO HeLa cells

Compound: CC(C)C[C@@H](C=O)NC(=O)[C@H](CC(C)C)NC(=O)[C@H](CC(C)C)NC(=O)OCc1ccccc1 [MG132] (Cbz-Leu-Leu-Leu-aldehyde)
- RGS4 accumulation post-MG132 (RGS4 [2]; ATE1-KO HeLa cells): no RGS4 accumulation
- normalized P.F. index (fold change), RGS4 accumulation (RGS4 [2]; WT ATE1 HeLa cells): ~ 29 fold change

Compound: WT hATE1: human arginyl-tRNA-protein transferase 1 isoform 2, wild type, recombinant
- small arginylated fraction of ATE1 (human ATE1): < 3 % of total
- RGS4 level by immunostaining (RGS4 [4]): but not in those transfected with WT ATE1
- RGS4 proteasomal flux / RGS4 stabilization (RGS4 [2]; ATE1-KO HeLa cells expressing the ATE1 construct): restored the P.F. index

Other lines, results leading:

- thermal stability decrease of ATE1 on EDTA treatment (hATE1 [1]; increasing amount of EDTA, duplicate measurements): ~ 7 °C
Compound: O=C(O)CN(CCN(CC(=O)O)CC(=O)O)CC(=O)O [EDTA]

- change of melting temperature of hATE1 in the presence of ligand (hATE1 [1]): no change was observed
Compound: N=C(N)NCCC[C@H](N)C(=O)O [free arginine, arginine]

- change of melting temperature of hATE1 in the presence of ligand (hATE1 [1]): no change was observed
Compound: NC(=O)CC[C@H](N)C(N)=O [glutamine amide]

- fold enhancement of binding affinity by tRNA-mimetic (A + T arms) (hATE1 [3]): 15 -fold
Compound: RDDIAA-FAM
